According to US11453640B2, “Small molecules for disrupting the super elongation complex and inhibiting transcription elongation for cancer therapy” (NORTHWESTERN UNIVERSITY, priority 2018, dated 2022):

What was measured:
[1] = system: Pol II; assay: 4sU-FP-seq measurement of Pol II transcription elongation rate in HEK293T cells; format: cell-based, human; conditions: 20 μM pretreatment 5 hr, HMM analysis, 982 genes
Description: FIG. 4. Small molecule disruption of SEC slows Pol II elongation rates. (A) Workflow of 4sU-FP-seq based measurement of the transcription elongation rate of RNA Pol II. HEK293T cells were pretreated with vehicle or 20 μM SEC inhibitors for 5 hr before addition of the CDK9 inhibitor flavopiridol for 1 hr to arrest Pol II at the promoter-proximal pause site. Inhibitors are washed out with PBS before allowing transcription to proceed in the presence of with fresh medium containing 500 μM 4-Thiouridine (4sU) for 15 min. The 4sU-labeled RNA is then extracted and fragmented before purification, and followed with RNA-seq. (B) Genome browser tracks of 4sU-FP-seq for vehicle and SEC inhibitor-treated cells at the ACTN2 and MTR loci. […] (C) Heatmap analysis of 4sU-FP-seq in vehicle and the indicated SEC inhibitors in HEK293T cells. All genes longer than 50 kb (N=5,568) were plotted and ordered using the total 4sU-FP-seq signals in the vehicle-treated cells. (D) Metaplot of strand-specific 4sU-FP-seq signals in vehicle and SEC inhibitors-treated cells. […] Raw changes in 4sU-FP-seq read counts in non-overlapping 50 bp windows used to infer elongation rates for the MTR gene. […] (F-G) Histograms (F) and boxplots (G) comparing the transcription elongation rates for 982 genes in HEK293T cells for which high confidence elongation rates could be determined. […]

[2] = system: H2171 and SW1271 cells; assay: CellTiter-Glo cell proliferation of small cell lung cancer cells; format: cell-based, human; conditions: 3 days, increasing concentrations
Description: FIG. 6. SEC disruption targets MYC and MYC target genes. (A-B) Venn diagram of deregulated genes in 293T cells by KL-1 and KL-2. […] (C) Heat map showing the expression changes in response to SEC inhibitors, with differentially expressed canonical MYC targets, RNA splicing factors, and core SNRP assembly genes highlighted. […] Each cluster is represented by different colors and a circle node denotes each enriched term. (E) MA plots of RNA splicing and Hallmark MYC target genes in KL-2 treated, AFF1 and AFF4 co-depletion, and ELL2-depleted cells. […] The MYC genes, the PRMT5 gene, and genes encoding SEC components are denoted as red squares. (F) Western analysis of MYC protein levels in the MYC lowly expressed small cell lung cancer cell line […] and MYC-amplified small cell lung cancer cell line H2171. (G) Gained SEC occupancy at the MYC binding sites in MYC highly expressed H2171 cells. Genome browser tracks of MYC and SEC occupancy around the PRMT5 gene in SW1271 and H2171 cells are shown. (H) ChIP-seq analysis of MYC binding peaks in SW1271 and H2171 cells. […] The SEC and MYC peaks were determined by MACS with a p-value cutoff at 1E-5. […] Both cell lines were treated with increasing concentrations of KL-1 and KL-2 for 3 days and the cell proliferation was measured with CellTiter-Glo luminescent cell viability assay (Promega) (n=3-6).

Which results are given for `COc1cccc(C(=O)CC(=O)C(=O)Nc2cc(Cl)ccc2C)c1` [KL-1, N-(5-chloro-2-methylphenyl)-4-oxo-4-(3-methoxyphenyl)-2-oxobutanamide]?
elongation rate of Pol II [1]: decreased the elongation rate of Pol II; sensitivity of high MYC expressing H2171 cells versus low MYC expressing SW1271 cells [2]: more sensitive
